From US20110065706A1, “Therapeutic Agents 812” (AstraZeneca AB, priority 2009, published 2011) come the findings set out here.

One experiment deals with T1, human GPR119 (Homo sapiens, UniProt Q8TDV5).
T1 construct: expressed in transfected cells; host or cells: HEK 293s
T1 sequence (Q8TDV5 1-335): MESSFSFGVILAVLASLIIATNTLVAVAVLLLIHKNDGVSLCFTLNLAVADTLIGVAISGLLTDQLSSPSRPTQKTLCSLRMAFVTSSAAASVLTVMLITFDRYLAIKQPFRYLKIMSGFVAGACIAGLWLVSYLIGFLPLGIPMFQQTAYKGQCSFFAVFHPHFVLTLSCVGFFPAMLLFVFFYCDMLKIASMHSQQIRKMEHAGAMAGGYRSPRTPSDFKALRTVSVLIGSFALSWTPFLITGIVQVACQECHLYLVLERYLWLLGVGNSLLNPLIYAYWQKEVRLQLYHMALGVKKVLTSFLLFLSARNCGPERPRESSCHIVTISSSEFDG
As to the kind of experiment: Cyclic AMP (HTRF cAMP) assay for human GPR119, Method A. Conditions: HEK293S, 0.75 h; Method A; HEK 293s cells over-expressing human GPR119; percent effect at top concentration 30 μM relative to maximum (50 μM Oleoylethanolamide) and minimum (1% DMSO) controls. The experiment is classed as cell-based.
The molecule `CNS(=O)(=O)c1ccc(COc2cnc(N3CCN(C(=O)OC(C)(C)C)CC3)nc2)cc1` [Example 16, tert-butyl 4-(5-(4-(N-methyl-sulfamoyl)benzyloxy)pyrimidin-2-yl)piperazine-1-carboxylate] had an activation at 30 µM of 57%. Still for that read-out and setting: to `CC(C)OC(=O)N1CCN(c2ncc(OCc3ccncc3C#N)cn2)CC1` [Example 58, isopropyl 4-(5-((3-cyanopyridin-4-yl)methoxy)pyrimidin-2-yl)piperazine-1-carboxylate] belongs 154%. Same read-out and setting: under `C[C@@H]1CN(c2noc(C(F)(F)F)n2)CCN1c1ncc(OCc2ccc(S(C)(=O)=O)cc2)cn1` [Example 90, (R)-3-(3-methyl-4-(5-(4-(mcthylsulfonyl)bcnzyloxy)pyrimidin-2-yl)pipcrazin-1-yl)-5-(trifluoromcthyl)-1,2,4-oxadiazole] stands 75%. With `CC(C)(C)OC(=O)N1CCN(c2ncc(OCc3ccc(S(C)(=O)=O)cc3F)cn2)CC1` [Example 36, tert-butyl 4-(5-(2-fluoro-4-(methylsulf-onyl)benzyl-oxy)pyrimi-din-2-yl)piperazine-1-carboxylate], the activation at 30 µM was 128%. `CC(C)OC(=O)N1CCN(c2ncc(OCc3ccc(S(C)(=O)=O)cc3)cn2)CC1` [Example 56, Isopropyl 4-(5-(4-(methylsulfonyl)benzyloxy)pyrimidin-2-yl)piperazine-1-carboxylate] displayed an activation at 30 µM of 63%. As for `N#Cc1cnccc1COc1cnc(N2CCN(C(=O)OC3COC3)CC2)nc1` [Example 77, oxetan-3-yl 4-(5-((3-cyanopyridin-4-yl)methoxy)pyrimidin-2-yl)piperazine-1-carboxylate], the activation at 30 µM came out at 92%. Take `C[C@@H]1CN(c2noc(C3(C)COC3)n2)CCN1c1ncc(OCc2ccncc2C#N)cn1` [Example 107, (R)-4-((2-(2-methyl-4-(5-(3-methyloxetan-3-yl)-1,2,4-oxadiazol-3-yl)piperazin-1-yl)pyrimidin-5-yloxy)methyl)nicotinonitrile]: the activation at 30 µM was found to be 188%.

On to `N#Cc1cnccc1COc1cnc(N2CCN(C(=O)OC3CCC3)CC2)nc1` [Example 65, cyclobutyl 4-(5-((3-cyanopyri-din-4-yl)methoxy)pyrimidin-2-yl)piperazine-1-carboxylate], for which the activation at 30 µM came out at 164%. The same measure, in the same setting: to `CS(=O)(=O)c1ccc(COc2cnc(N3CCN(c4ncc(F)cn4)CC3)nc2)cc1` [Example 42, 5-fluoro-2-(4-(5-(4-(methylsulfonyl)benzyloxy)pyrim-idin-2-yl)piperazin-1-yl)pyrimidine] belongs 64%; to `C[C@@H]1CN(C(=O)OC2(C(F)(F)F)COC2)CCN1c1ncc(OCc2ccncc2C#N)cn1` [Example 111, (R)-3-(trifluoromcthyl) oxetan-3-yl 4-(5-((3-cyanopyridin-4-yl)mcthoxy)pyrimidin-2-yl)-3-mcthylpipcrazine-1-carboxylate], 171%; to `CC(C)(C)OC(=O)N1CCN(c2ncc(OCc3ccc(S(C)(=O)=O)nc3)cn2)CC1` [Example 30, Tert-butyl 4-(5((6-(methylsulfonyl)pyridin-3-yl)methoxy)pyrimidin-2-yl)piperazine-1-carboxylate], 86%. Still for that read-out and setting: under `CC1(OC(=O)N2CCN(c3ncc(OCc4ccc(S(C)(=O)=O)cc4)cn3)CC2)COC1` [Example 79, 3-Methyloxetan-3-yl 4-(5-(4-(methylsulfonyl)benzyloxy)pyrimidin-2-yl)piperazine-1-carboxylate] stands 37%. On the same count and under the same terms, to `CC(OC(=O)N1CCN(c2ncc(OCc3ccc(S(C)(=O)=O)cc3)cn2)[C@H](C)C1)C(F)(F)F` (stereo partly drawn) [Example 67, (3R)-1,1,1-trifluoropropan-2-yl 3-methyl-4-(5-(4-(methylsulfonyl)benzyloxy)pyrim-idin-2-yl)piperazine-1-carboxylate] belongs 60%; to `C[C@@H]1CN(C(=O)OC2COC2)CCN1c1ncc(OCc2ccc(S(C)(=O)=O)cc2)cn1` [Example 76, (R)-oxetan-3-yl 3-methyl-4-(5-(4-(methylsulfonyl)benzyloxy)pyrimidin-2-yl)piperazine-1-carboxylate], 30%. In the case of `Cc1cc(COc2cnc(N3CCN(C(=O)OC(C)(C)C)CC3)nc2)ccc1C(=O)NC(C)(C)C` [Example 55, tert-butyl 4-(5-(4-(tert-butylcarbamoyl)-3-methylbenzyl-oxy)pyrimidin-2-yl)piperazine-1-carboxylate], the activation at 30 µM was found to be 65%. As to `CC(C)(C)OC(=O)N1CCN(c2ncc(OCc3ccc(-n4cccn4)nc3)cn2)CC1` [Example 5, tert-butyl 4-(5-((6-(1H-pyrazol-1-yl)pyridin-3-yl)methoxy)pyrimidin-2-yl)piperazine-1-carboxylate], the activation at 30 µM came to 82%. Still for that read-out and setting: under `CS(=O)(=O)c1ccc(COc2cnc(N3CCN(C(=O)OC4CCC4)CC3)nc2)cc1` [Example 63, Cyclobutyl 4-(5-(4-(methylsulfonyl)benzyloxy)pyrimidin-2-yl)piperazine-1-carboxylate] stands 52%; under `CC1(OC(=O)N2CCN(c3ncc(OCc4ccncc4C#N)cn3)CC2)COC1` [Example 81, 3-methyloxetan-3-yl 4-(5-((3-cyanopyridin-4-yl)methoxy)pyrimi-din-2-yl)piperazine-1-carboxylate], 143%; under `CC(C)NC(=O)c1ccc(COc2cnc(N3CCN(C(=O)OC(C)(C)C)CC3)nc2)cc1` [Example 46, tert-butyl 4-(5-(4-(isopropylcarba-moyl)benzyl-oxy)pyrimidin-2-yl)piperazine-1-carboxylate], 94%. For the molecule `CC(C)(C)OC(=O)N1CCN(c2ncc(OCc3ccc(S(C)(=O)=O)cc3)cn2)CC1` [Example 1, Tert-butyl 4-(5-(4-(methylsulfonyl)benzyloxy)pyrimidin-2-yl)piperazine-1-carboxylate], the activation at 30 µM turned out to be 83%. Still for that read-out and setting: under `CC1(OC(=O)N2CCN(c3ncc(OCc4ccc(S(C)(=O)=O)cc4)cn3)CC2)CC1` [Example 60, 1-Methylcyclopropyl 4-(5-(4-(methylsulfonyl)benzyloxy)pyrimidin-2-yl)piperazine-1-carboxylate] stands 90%; under `CN(CCO)C(=O)c1ccc(COc2cnc(N3CCN(C(=O)OC(C)(C)C)CC3)nc2)cc1` [Example 43, Tert-butyl 4-(5-(4-((2-hydroxyethyl)(methyl)carbamoyl)benzyloxy)pyrimidin-2-yl)piperazine-1-carboxylate], 48%; under `CC(C)(C#N)OC(=O)N1CCN(c2ncc(OCc3ccncc3C#N)cn2)CC1` [Example 72, 2-cyanopropan-2-yl 4-(5-((3-cyanopyridin-4-yl)methoxy)pyrimidin-2-yl)piperazine-1-carboxylate], 173%. On the same count and under the same terms, to `CC(OC(=O)N1CCN(c2ncc(OCc3ccncc3C#N)cn2)CC1)C(F)(F)F` (stereo not drawn) [Example 68, 1,1,1-trifluoropropan-2-yl 4-(5-((3-cyanopyridin-4-yl)methoxy)pyrim-idin-2-yl)piperazine-1-carboxylate] belongs 169%; to `CC(C)(C)OC(=O)N1CCN(c2ncc(OCc3ccc(S(=O)(=O)CCN4CCOCC4)cc3)cn2)CC1` [Example 92, Tert-butyl 4-(5-(4-(2-morpholinoethylsulfonyl)benzyloxy)pyrimidin-2-yl)piperazine-1-carboxylate], 68%. Still for that read-out and setting: under `CS(=O)(=O)c1ccc(COc2cnc(N3CCN(c4noc(C(F)(F)F)n4)CC3)nc2)cc1` [Example 88, 3-(4-(5-(4-(methylsulfonyl)bcnzyloxy)pyrimidin-2-yl)pipcrazin-1-yl)-5-(trifluoromcthyl)-1,2,4-oxadiazole] stands 79%. The molecule `CC(C)(C)OC(=O)N1CCN(c2ncc(OCc3ccc([S+]([O-])C(F)(F)F)cc3)cn2)CC1` (stereo not drawn) [Example 91, Tert-butyl 4-(5-(4-(trifluoromethylsulfinyl)benzyloxy)pyrimidin-2-yl)piperazine-1-carboxylate] returned an activation at 30 µM of 32%.

`N#Cc1cnccc1COc1cnc(N2CCN(C(=O)OCC(F)(F)F)CC2)nc1` [Example 106, 2,2,2-trifluorocthyl 4-(5-((3-cyanopyridin-4-yl)mcthoxy)pyrimidin-2-yl)pipcrazinc-1-carboxylate] had an activation at 30 µM of 193%.

`Cc1cc(COc2cnc(N3CCN(C(=O)OC(C)(C)C)CC3)nc2)ccc1C(=O)NC(C)C` [Example 54, Tert-butyl 4-(5-(4-(isopropylcarbamoyl)-3-methylbenzyloxy)pyrimidin-2-yl)piperazine-1-carboxylate] returned an activation at 30 µM of 51%.

Still in this experiment, the particulars now being: Method A; HEK 293s cells over-expressing human GPR119; midpoint of dose response curve; selected examples.
As usually defined, the EC50 is the concentration needed to bring the measured effect to its halfway point. With `C[C@@H]1CN(c2noc(C(F)(F)F)n2)CCN1c1ncc(OCc2ccc(S(C)(=O)=O)cc2)cn1` [Example 90, (R)-3-(3-methyl-4-(5-(4-(mcthylsulfonyl)bcnzyloxy)pyrimidin-2-yl)pipcrazin-1-yl)-5-(trifluoromcthyl)-1,2,4-oxadiazole], the EC50 is 26 nM.

`CC(C)(C)OC(=O)N1CCN(c2ncc(OCc3ccc(S(C)(=O)=O)cc3F)cn2)CC1` [Example 36, tert-butyl 4-(5-(2-fluoro-4-(methylsulf-onyl)benzyl-oxy)pyrimi-din-2-yl)piperazine-1-carboxylate] gave an EC50 of 19 nM. The molecule `CS(=O)(=O)c1ccc(COc2cnc(N3CCN(c4ncc(F)cn4)CC3)nc2)cc1` [Example 42, 5-fluoro-2-(4-(5-(4-(methylsulfonyl)benzyloxy)pyrim-idin-2-yl)piperazin-1-yl)pyrimidine] came in with an EC50 of 156 nM. On the same count and under the same terms, under `CC(OC(=O)N1CCN(c2ncc(OCc3ccc(S(C)(=O)=O)cc3)cn2)[C@H](C)C1)C(F)(F)F` (stereo partly drawn) [Example 67, (3R)-1,1,1-trifluoropropan-2-yl 3-methyl-4-(5-(4-(methylsulfonyl)benzyloxy)pyrim-idin-2-yl)piperazine-1-carboxylate] stands 39 nM. `CC(C)NC(=O)c1ccc(COc2cnc(N3CCN(C(=O)OC(C)(C)C)CC3)nc2)cc1` [Example 46, tert-butyl 4-(5-(4-(isopropylcarba-moyl)benzyl-oxy)pyrimidin-2-yl)piperazine-1-carboxylate]: the 50% effective concentration (EC50) amounted to 32 nM.

Staying with this experiment, now noted: human GPR119 cAMP assay; top concentration 30 μM.
As to `N#Cc1cnccc1COc1cnc(N2CCN(C(=O)OC3CCOC3)CC2)nc1` (stereo not drawn) [tetrahydrofuran-3-yl 4-[5-[(3-cyano-4-pyridyl)methoxy]pyrimidin-2-yl]piperazine-1-carboxylate], the “significant activity at a top concentration of 30 μM” value was “did not show significant activity”.

For the molecule `N#Cc1cnccc1COc1cnc(N2CCN(C(=O)OC3CCOCC3)CC2)nc1` [tetrahydropyran-4-yl 4-[5-[3-cyano-4-pyridyl)methoxy]pyrimidin-2-yl]piperazine-1-carboxylate], the “significant activity at a top concentration of 30 μM” value is “did not show significant activity”.
